In patent US10925858B2, “S-nitrosoglutathione (GSNO) and GSNO reductase inhibitors for use in therapy” (MUSC FOUNDATION FOR RESEARCH DEVELOPMENT, priority 2017, dated 2021):

Assays:
myelin = assay: Myelin status in spinal cords of EAE mice (immunofluorescent staining for MBP, Western for MBP and PLP); assay type: in vivo, C57BL/6 mice; settings: 1 mg/kg/day, N6022 vs FTY720
Protocol: Female C57BL/6 mice of 8-12 weeks of age, purchased from Jackson Laboratory, were provided with food and water ad libitum and were kept in pathogen free animal care facility of Medical University of South Carolina (MUSC) throughout the study. All procedures were conducted in accordance with accepted standards of humane care as approved by the Institutional Animal Care and Use Committee (Approved number: AR #1644). EAE was induced as described previously (Nath et al., 2009). Briefly, mice were immunized subcutaneously in the flank regions with MOG35-55 peptide (MOG; 200 μg; Peptide International) emulsified (1:1) in 100 ul complete Freund's adjuvant (CFA) on day 0 and day 7. Additionally, 300 ng of Pertussis toxin (Sigma-Aldrich, St. Louis, Mo.) was given on day 0 and day 2 by i.p. injection. […] Clinical signs of EAE were scored by examiners blinded to experimental treatments using the following scale: 0=no clinical signs of disease; 1=piloerection and sluggish; 2=limp tail (ataxia); 2.5=ataxia with partial hind limb paralysis; 3=full paralysis of hind limb; 3.5=full paralysis of hind limb with paralysis of one fore limb; 4=full paralysis of two limbs; 4.5=moribund stage; 5=death. […]
Tissue samples were embedded in paraffin block and sectioned transversely (5 μm-thick). […] For the quantitation of infiltrates, the digital images were analyzed by ImageJ (NIH, Bethesda, Md.). […]

CD4+ T cells = assay: Ex vivo culture of PLP139-151 immunized T cells from EAE mice, cytokine ELISA; assay type: in vivo, SJL mice
passive EAE disease = assay: Adoptive transfer model of EAE (passive EAE), clinical disease; assay type: in vivo, SJL mice
Protocol: EAE disease was induced in 8- to 10-week-old female SJL mice by immunization with an emulsion (100 μl, subcutaneous) of proteolipid protein peptide (PLP139-151; Peptide International. Louisville, Ky.) and 200 μg of killed Mycobacterium tuberculosis H37Ra (Difco, Detroit, Mich., USA) followed by booster on day 7 as described previously (Nath et al., 2010). The mice additionally received pertussis toxin (Sigma-Aldrich, St. Louis, Mo.; 200 ng/300 μl PBS, intravenous) on day 0 and 3 post-immunization. On the day of immunization, one group of mice received 100 μl phosphate buffered saline (PBS) and the second group of mice received daily GSNO (1.0 mg/kg, 100 μl/PBS) via oral route GSNO was purchased from World Precision Instruments (Sarasota, Fla.) and its concentration was adjusted spectrophotometrically at 334 nm. Individual animals were observed daily for clinical disease severity by an investigator, blinded to experimental treatments, on a 0-5 scale as follows: 0=no abnormality; 1=piloerection, sluggish, 2=limp tail; 2.5=hind limb weakness (legs slip through cage top); 3=hind limb paralysis, 4=hind and forelimb paralysis; and 5=moribund.
At the peak of EAE disease, the mice were sacrificed and CD4+ T cells were purified from draining lymph nodes (DLN) and spleens by CD4+ T cell isolation kit (Miltenyi, Auburn. Calif.). The purified T cells (2.5×10^6 cells/ml) were cultured in 96-well round-bottom microculture plates (Falcon Labware, Oxnard, Calif.) in RPMI-complete media containing RPMI 1640 (Life Technologies, Gaithersburg, Md.), 10% FBS, and 100 μg/ml streptomycin and penicillin (Atlanta Biologicals Norcross, Ga.), 1 mM glutamine, 1 mM nonessential amino acids, and 50 μM 2-mercaptoethanol (Sigma-Aldrich). For skewing of different CD4+ T cell subsets and their expansion, the isolated CD4+ T cells were stimulated with PLP139-151 (5 μg/ml) with IL-2 (10 ng/ml) for TH0, IL-2 (10 ng/ml), rhIL-12p35 (10 ng/ml), and anti-IL-4 (1 μg/ml) for TH1, or recombinant mouse IL-12/23p40 homodimer (10 ng/ml), anti-IFN-γ 1 (μg/ml), anti-IL-4 (1 μg/ml) for TO 17. All cytokines and antibodies were purchased from BD Biosciences (San Diego, Calif.). Following stimulation, the cells were harvested for adoptive transfer of EAE disease and the culture supernatants were collected for analysis of IFN-γ, IL-17, and IL-10 expression by ELISA (Biolegend Cat #430802, 432505, and 431411; San Diego, Calif.).
(20-30×10^6 T cells in 300 μl RPMI media per mouse) were injected to naive SJL female mice (8-10 week old) via intraperitoneal route. The recipient mice were also given two doses of pertussis toxin (200 ng/300 μl of PBS/i.p.) on day 0 and 2 of post immunization. Clinical EAE disease was measured as describe above.

[1] = T cells from GSNO (1.0 mg/kg daily from immunization) treated vs untreated EAE mice, TH0 condition
[2] = T cells from GSNO treated vs untreated EAE mice
[3] = daily GSNO treatment of recipient mice

Compound	protection against myelin loss in the spinal cords (myelin)	IFN-γ production of T cells in response to PLP139-151 stimulation (CD4+ T cells; [1])	IL-17 production of T cells in response to PLP139-151 stimulation (CD4+ T cells; [1])	GM-CSF production under TH1 and TH17 skewing conditions (CD4+ T cells; [2])	IFN-γ production under TH1 skewing conditions (CD4+ T cells; [2])	IL-10 production under TH1 and TH17 skewing conditions (CD4+ T cells; [2])	IL-17 production under TH17 skewing conditions (CD4+ T cells; [2])	passive EAE disease severity, recipients of T cells from GSNO treated EAE mice treated with GSNO during the disease (passive EAE disease; [3])	passive EAE disease, recipients of T cells from untreated EAE mice treated with GSNO during the disease (passive EAE disease; [3])	passive EAE disease after transfer of T cells from GSNO treated EAE mice (passive EAE disease; recipients without GSNO, vs T cells from untreated EAE mice)	passive EAE disease after transfer of TH1 and TH17 skewed T cells from GSNO treated EAE mice (passive EAE disease; vs T cells from untreated EAE mice)
Cc1cc(C(N)=O)ccc1-n1c(CCC(=O)O)ccc1-c1ccc(-n2ccnc2)cc1 [N6022, reference compound]	protects against the myelin loss in the spinal cords of EAE mice greater than FTY720 treatment	–	–	–	–	–	–	–	–	–	–
N[C@@H](CCC(=O)N[C@@H](CSN=O)C(=O)NCC(=O)O)C(=O)O [GSNO, S-nitrosoglutathione]	–	comparable levels	significantly lower levels	similarly increased levels	comparable amounts	significantly higher amounts	EAE group produced higher levels of IL-17 than T cells isolated from GSNO+ EAE group	further reduced	reduced the EAE disease	significantly delayed and milder disease	significantly milder EAE disease
